Assay results as given in paper PMC10035389, “Safety, Tolerability, and Pharmacokinetics of TAK-931, a Cell Division Cycle 7 Inhibitor, in Patients with Advanced Solid Tumors: A Phase I First-in-Human Study” (Cancer Research Communications, 2022).

Test system: patients with advanced solid tumors
Experiment: Safety and tolerability (adverse events, NCI CTCAE v4.03), phase I dose-escalation study
Assay type: in vivo, human
From the text: This was a phase I, open-label, dose-escalation study of single-agent TAK-931. Dose escalation of TAK-931 was cohort based with an adaptive design using Bayesian logistic regression modeling (BLRM) with pharmacokinetic guidance. BLRM also guided MTD estimation from the second dose. Patients were enrolled in one of four dosing schedules (A, B, D, or E; Supplementary Fig. S1) to receive TAK-931. Two additional schedules were planned (C and F) but no patients were enrolled. Schedule A included an initial accelerated escalation phase. TAK-931 was administered once daily for 14 days in 21-day cycles starting at 30 mg, which doubled until a cycle 1 dose-limiting toxicity (DLT) was observed, when 2 patients experienced grade ≥2 treatment-related toxicity, or when maximum geometric mean plasma concentration (Cmax) for the cohort reached or exceeded 800 ng/mL [threshold for off-target adverse effects (hypotension) in animal toxicology studies]; then dose escalation transitioned to modified Fibonacci escalation steps. In schedule B (based on experience with schedule A), patients received TAK-931 once daily or twice daily for 7 days on, 7 days off in a 28-day cycle starting at 60 mg. In schedule D, patients received TAK-931 once daily starting at 20 mg in 21-day cycles; BLRM was not applied but further adjustments were dependent on observed safety, pharmacokinetics, and pharmacodynamics. In schedule E, patients received TAK-931 once daily for 2 days on, 5 days off starting at 100 mg in 21-day cycles. A safety expansion was permitted once MTD had been determined. Prophylactic growth factors were permitted in all schedules to manage severe and/or febrile neutropenia. TAK-931 treatment continued until unacceptable toxicity, disease progression, or patient withdrawal.
DLTs included: cycle 1 grade ≥3 hematologic and non-hematologic events or grade 2 non-hematologic events considered by the investigator to be TAK-931-related, grade 2 ejection fraction decrease, >2 weeks delay in initiating cycle 2 (1 week for schedules D and E), and >50% TAK-931 dose reduction in cycle 1 due to treatment-related adverse events (AEs; see Supplementary Materials and Methods for full DLT criteria). Toxicity was evaluated by NCI Common Terminology Criteria for Adverse Events (version 4.03). Tumor response was measured using the RECIST (version 1.1) ([16]). Serial blood samples for pharmacokinetic analysis were collected during cycle 1 on days 1 and 7 (schedule B), 1 and 8 (schedules A and D), or 1 and 9 (schedule E). Pharmacokinetic parameters were estimated from concentration–time profiles using noncompartmental methods with WinNonlin® Phoenix™ version 8.1 (Certara, Princeton, NJ). pMCM2 was detected semiquantitatively by IHC of histologic sections of formalin-fixed, paraffin-embedded skin and tumor biopsies using anti-pMCM2 (3378-1, Epitomics Inc.; ref. [15]). Quantitative image analysis determined pMCM2 levels as “histologic score nuclei (H-score).” Skin punch biopsies (2–4 mm) were obtained during screening or predose on cycle 1, day 1 and for patients in schedules A, B, and D, postdose on any drug dosing day after 3 consecutive dosing days in cycle 1. A postdose skin biopsy was obtained on day 9 in schedule E. Fresh tumor biopsy pairs were collected predose and postdose on any dosing day after the completion of 3 consecutive dosing days in cycle 1 from patients who received doses considered to have biological effect.
The safety population included patients who received ≥1 dose of TAK-931. The pharmacodynamic-evaluable population comprised patients from the safety population with a baseline and ≥1 additional postbaseline biopsy sample that was suitable for pMCM2 analysis. The pharmacokinetic-evaluable population included patients with sufficient dosing and TAK-931 concentration–time data to estimate pharmacokinetic parameters. […]

[1] = Schedule D (continuous once daily) n = 18
[2] = Schedule E (2 days on, 5 days off) n = 13
[3] = all schedules, N = 80, all grade 1/2

Cc1[nH]ncc1-c1cc2nc([C@@H]3CC4CCN3CC4)[nH]c(=O)c2s1 [TAK-931, simurosertib]
Rash popular, AE any grade [1]: 2 (11) n (%)
Stomatitis, AE any grade [1]: 0 (0) n (%)
Thrombocytopenia, AE any grade [1]: 0 (0) n (%)
Tumor pain, AE any grade [1]: 1 (6) n (%)
Vomiting, AE any grade [1]: 2 (11) n (%)
White blood cell count decreased, AE any grade [1]: 7 (39) n (%)
White blood cell count decreased, grade ≥3 AE [1]: 2 (11) n %
Abdominal pain, AE any grade [2]: 0 (0) n (%)
Alopecia, AE any grade [2]: 4 (31) n (%)
Anemia, AE any grade [2]: 6 (46) n (%)
Anemia, grade ≥3 AE [2]: 5 (38) n %
Arthralgia, AE any grade [2]: 1 (8) n (%)
Blood creatinine increased, AE any grade [2]: 0 (0) n (%)
Constipation, AE any grade [2]: 1 (8) n (%)
Cough, AE any grade [2]: 0 (0) n (%)
Decreased appetite, AE any grade [2]: 5 (38) n (%)
Decreased appetite, grade ≥3 AE [2]: 0 (0) n %
Diarrhea, AE any grade [2]: 3 (23) n (%)
Dry skin, AE any grade [2]: 3 (23) n (%)
Edema peripheral, AE any grade [2]: 3 (23) n (%)
Electrocardiogram QT prolonged, AE any grade [2]: 1 (8) n (%)
Fall, AE any grade [2]: 2 (15) n (%)
Fatigue, AE any grade [2]: 2 (15) n (%)
Febrile neutropenia, AE any grade [2]: 1 (8) n (%)
Febrile neutropenia, grade ≥3 AE [2]: 1 (8) n %
Gamma-glutamyltransferase increased, AE any grade [2]: 2 (15) n (%)
Gamma-glutamyltransferase increased, grade ≥3 AE [2]: 0 (0) n %
Hypoalbuminemia, AE any grade [2]: 0 (0) n (%)
Hypoalbuminemia, grade ≥3 AE [2]: 0 (0) n %
Hypophosphatemia, grade ≥3 AE [2]: 0 (0) n %
Hypotension, AE any grade [2]: 5 (38) n (%)
Leukopenia, AE any grade [2]: 1 (8) n (%)
Leukopenia, grade ≥3 AE [2]: 0 (0) n %
Lymphocyte count decreased, AE any grade [2]: 1 (8) n (%)
Lymphocyte count decreased, grade ≥3 AE [2]: 1 (8) n %
Lymphopenia, AE any grade [2]: 0 (0) n (%)
Malaise, AE any grade [2]: 2 (15) n (%)
Nasopharyngitis, AE any grade [2]: 0 (0) n (%)
Nausea, AE any grade [2]: 7 (54) n (%)
Neutropenia, AE any grade [2]: 8 (62) n (%)
Neutropenia, grade ≥3 AE [2]: 8 (62) n %
Orthostatic hypotension, AE any grade [2]: 3 (23) n (%)
Platelet count decreased, AE any grade [2]: 1 (8) n (%)
Pruritus, AE any grade [2]: 0 (0) n (%)
Pyrexia, AE any grade [2]: 2 (15) n (%)
Rash popular, AE any grade [2]: 0 (0) n (%)
Stomatitis, AE any grade [2]: 1 (8) n (%)
Thrombocytopenia, AE any grade [2]: 0 (0) n (%)
Tumor pain, AE any grade [2]: 3 (23) n (%)
Vomiting, AE any grade [2]: 7 (54) n (%)
White blood cell count decreased, AE any grade [2]: 7 (54) n (%)
White blood cell count decreased, grade ≥3 AE [2]: 4 (31) n %
Abdominal pain, AE any grade (Total, all schedules N = 80): 5 (6) n (%)
Alopecia, AE any grade (Total, all schedules N = 80): 26 (33) n (%)
Anemia, AE any grade (Total, all schedules N = 80): 19 (24) n (%)
Anemia, grade ≥3 AE (Total, all schedules N = 80): 10 (13) n %
Arthralgia, AE any grade (Total, all schedules N = 80): 6 (8) n (%)
Blood creatinine increased, AE any grade (Total, all schedules N = 80): 7 (9) n (%)
Constipation, AE any grade (Total, all schedules N = 80): 10 (13) n (%)
Cough, AE any grade (Total, all schedules N = 80): 3 (4) n (%)
Decreased appetite, AE any grade (Total, all schedules N = 80): 23 (29) n (%)
Decreased appetite, grade ≥3 AE (Total, all schedules N = 80): 3 (4) n %
Diarrhea, AE any grade (Total, all schedules N = 80): 15 (19) n (%)
Dry skin, AE any grade (Total, all schedules N = 80): 6 (8) n (%)
Edema peripheral, AE any grade (Total, all schedules N = 80): 10 (13) n (%)
Electrocardiogram QT prolonged, AE any grade (Total, all schedules N = 80): 4 (5) n (%)
Fall, AE any grade (Total, all schedules N = 80): 4 (5) n (%)
Fatigue, AE any grade (Total, all schedules N = 80): 12 (15) n (%)
Febrile neutropenia, AE any grade (Total, all schedules N = 80): 5 (6) n (%)
Febrile neutropenia, grade ≥3 AE (Total, all schedules N = 80): 5 (6) n %
Gamma-glutamyltransferase increased, AE any grade (Total, all schedules N = 80): 5 (6) n (%)
Gamma-glutamyltransferase increased, grade ≥3 AE (Total, all schedules N = 80): 2 (3) n %
Hypoalbuminemia, AE any grade (Total, all schedules N = 80): 6 (8) n (%)
Hypoalbuminemia, grade ≥3 AE (Total, all schedules N = 80): 2 (3) n %
Hypophosphatemia, grade ≥3 AE (Total, all schedules N = 80): 2 (3) n %
Hypotension, AE any grade (Total, all schedules N = 80): 11 (14) n (%)
Leukopenia, AE any grade (Total, all schedules N = 80): 19 (24) n (%)
Leukopenia, grade ≥3 AE (Total, all schedules N = 80): 11 (14) n %
Lymphocyte count decreased, AE any grade (Total, all schedules N = 80): 4 (5) n (%)
Lymphocyte count decreased, grade ≥3 AE (Total, all schedules N = 80): 2 (3) n %
Lymphopenia, AE any grade (Total, all schedules N = 80): 5 (6) n (%)
Malaise, AE any grade (Total, all schedules N = 80): 11 (14) n (%)
Nasopharyngitis, AE any grade (Total, all schedules N = 80): 6 (8) n (%)
Nausea, AE any grade (Total, all schedules N = 80): 48 (60) n (%)
Neutropenia, AE any grade (Total, all schedules N = 80): 45 (56) n (%)
Neutropenia, grade ≥3 AE (Total, all schedules N = 80): 37 (46) n %
Orthostatic hypotension, AE any grade (Total, all schedules N = 80): 4 (5) n (%)
Platelet count decreased, AE any grade (Total, all schedules N = 80): 6 (8) n (%)
Pruritus, AE any grade (Total, all schedules N = 80): 4 (5) n (%)
Pyrexia, AE any grade (Total, all schedules N = 80): 10 (13) n (%)
Rash popular, AE any grade (Total, all schedules N = 80): 5 (6) n (%)
Stomatitis, AE any grade (Total, all schedules N = 80): 7 (9) n (%)
Thrombocytopenia, AE any grade (Total, all schedules N = 80): 5 (6) n (%)
Tumor pain, AE any grade (Total, all schedules N = 80): 8 (10) n (%)
Vomiting, AE any grade (Total, all schedules N = 80): 29 (36) n (%)
White blood cell count decreased, AE any grade (Total, all schedules N = 80): 27 (34) n (%)
White blood cell count decreased, grade ≥3 AE (Total, all schedules N = 80): 12 (15) n %
Decrease in CLr (renal effects monitoring) (all schedules): no clinically relevant decrease
Severity of cardiovascular events (all schedules): grade 1/2
Alopecia, AE (all schedules, N = 80): 33%
Anemia, AE (all schedules, N = 80): 24%
Anemia, grade ≥3 AE (all schedules, N = 80): 13%
Decreased appetite, AE (all schedules, N = 80): 29%
Febrile neutropenia, grade ≥3 AE (all schedules, N = 80): 6%
Leukopenia, AE (all schedules, N = 80): 24%
Leukopenia, grade ≥3 AE (all schedules, N = 80): 14%
Nausea, AE (all schedules, N = 80): 60%
Neutropenia, AE (all schedules, N = 80): 56%
Neutropenia, grade ≥3 AE (all schedules, N = 80): 46%
Patients who discontinued treatment (AEs) (all schedules, N = 80): 4 patients
Patients with AEs resulting in dose delays (all schedules, N = 80): 40%
Patients with AEs resulting in dose holds (all schedules, N = 80): 45%
Patients with AEs resulting in dose reductions (all schedules, N = 80): 31%
Vomiting, AE (all schedules, N = 80): 36%
White blood cell count decreased, AE (all schedules, N = 80): 34%
White blood cell count decreased, grade ≥3 AE (all schedules, N = 80): 15%
Patients reporting grade ≥3 AEs (all schedules, N = 80, 50 patients): 63%
Patients experiencing AEs (all schedules, N = 80, 79 patients): 99%
Patients with AEs resulting in TAK-931 dose modification (all schedules, N = 80, Forty-nine patients): 61%
Patients who discontinued treatment (AEs) (all schedules, N = 80, Four patients): 5%
Patients with ≥1 serious AE (all schedules, N = 80, Twenty-three patients): 29%
Electrocardiogram QT prolonged, cardiovascular event [3]: 5%
Hypotension, cardiovascular event [3]: 14%
Orthostatic hypotension, cardiovascular event [3]: 5%
Decreased appetite, serious AE (all schedules, N = 80, n = 3): 4%
Malignant ascites, serious AE (all schedules, N = 80, n = 3): 4%
Febrile neutropenia, serious AE (all schedules, N = 80, n = 4): 5%
Patients who died during the study (all schedules, Two patients, due to disease progression, neither related to TAK-931): 3%
